Laboratory results reported in patent US9073876B2, “Flap modulators” (JANSSEN PHARMACEUTICA NV, priority 2013, dated 2015).
Where a name gives a salt, the structure may show the parent alone.

How the values were obtained:
human FLAP = human FLAP (Homo sapiens (Human), UniProt P20292); test: FLAP binding assay (HTRF); details: human FLAP-containing membranes, HTRF format; average of two assay plates, duplicates; read-out: FLAP Binding wild type HTRF Ki
Outline: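 Read-out is the HTRF ratio. Each reported figure averages two assay plates on which samples were tested in duplicate.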

[1] = system: leukotriene pathway in human whole blood (LTB4 levels); test: Human whole blood assay (LTB4); format: cell-based; details: human whole blood diluted 1:1 in RPMI, stimulated with calcium ionophore A23187; single replicate
Outline: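 Heparinised human whole blood diluted 1:1 in RPMI, pre-incubated 15 min at 37° Celsius with compound, then stimulated with A23187 (7 μg/mL) for 30 min at 37° Celsius. Plasma LTB4 measured by immunoassay kit; IC50 from 4-parameter fit; single replicate per plate, at least one healthy donor.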

Sequence of human FLAP (P20292 whole entry): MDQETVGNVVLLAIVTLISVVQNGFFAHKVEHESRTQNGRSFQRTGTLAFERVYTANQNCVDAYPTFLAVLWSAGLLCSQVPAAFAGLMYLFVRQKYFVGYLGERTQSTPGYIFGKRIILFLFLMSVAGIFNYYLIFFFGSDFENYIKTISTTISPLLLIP

`Nc1cnc(-c2ccc(C3CCC3)c(Oc3nccc(C(=O)O)n3)c2F)cn1` [Example 152, 2-[3-(5-Aminopyrazin-2-yl)-6-cyclobutyl-2-fluorophenoxy]pyrimidine-4-carboxylic acid] gave a Ki (human FLAP) of 62.5 nM and an IC50 [1] of over 10000 nM.

For `Nc1cnc(-c2ccc(C3CCC3)c(Oc3ccc(C(=O)O)cc3)c2F)cn1` [Example 153, 4-[3-(5-Aminopyrazin-2-yl)-6-cyclobutyl-2-fluorophenoxy]benzoic acid], the Ki (human FLAP) was 2.3 nM and the IC50 [1] was 424 nM.

`Nc1cnc(-c2ccc(C3CCC3)c(Oc3ccc(C(=O)O)cn3)c2F)cn1` [Example 154, 6-[3-(5-Aminopyrazin-2-yl)-6-cyclobutyl-2-fluorophenoxy]pyridine-3-carboxylic acid] gave a Ki (human FLAP) of 12.5 nM and an IC50 [1] of over 10000 nM.

`NC(=O)c1ccnc(Oc2c(C3CCC3)ccc(-c3cnc(N)cn3)c2F)n1` [Example 157, 2-[3-(5-Aminopyrazin-2-yl)-6-cyclobutyl-2-fluorophenoxy]pyrimidine-4-carboxamide] showed a Ki (human FLAP) of 20.6 nM and an IC50 [1] of 109 nM.

For `Nc1cnc(Oc2c(C3CCC3)ccc(-c3cnc(N)cn3)c2F)nc1` [Example 158, 2-[3-(5-Aminopyrazin-2-yl)-6-cyclobutyl-2-fluorophenoxy]pyrimidin-5-amine], the Ki (human FLAP) was 7.8 nM and the IC50 [1] was 35.9 nM.

`COc1c(C2CCC2)ccc(-c2cnc(N)nc2)c1F` [Example 159, 5-(4-cyclobutyl-2-fluoro-3-methoxyphenyl)pyrimidin-2-amine] showed a Ki (human FLAP) of 55.7 nM and an IC50 [1] of 3310 nM.

In the case of `Nc1ncc(-c2ccc(C3CCC3)c(Oc3ncccn3)c2F)cn1` [Example 160, 5-[4-Cyclobutyl-2-fluoro-3-(pyrimidin-2-yloxy)phenyl]pyrimidin-2-amine], the Ki (human FLAP) is reported as 94.7 nM and the IC50 [1] is reported as 494 nM.

With `Nc1ccnc(Oc2c(C3CCC3)ccc(-c3cnc(N)nc3)c2F)n1` [Example 161, 5-{3-[(4-Aminopyrimidin-2-yl)oxy]-4-cyclobutyl-2-fluorophenyl}pyrimidin-2-amine] the Ki (human FLAP) was 22.2 nM and the IC50 [1] was 88 nM.

In the case of `COCc1cc(Oc2c(C3CCC3)ccc(-c3cnc(N)nc3)c2F)nc(N)n1` [Example 162, 4-[3-(2-Aminopyrimidin-5-yl)-6-cyclobutyl-2-fluorophenoxy]-6-(methoxymethyl)pyrimidin-2-amine], the Ki (human FLAP) is reported as 7.2 nM and the IC50 [1] is reported as 124 nM.

In the case of `Cc1ccnc(Oc2c(C3CCC3)ccc(-c3cnc(N)nc3)c2F)n1` [Example 163, 5-{4-Cyclobutyl-2-fluoro-3-[(4-methylpyrimidin-2-yl)oxy]phenyl}pyrimidin-2-amine], the Ki (human FLAP) is reported as 70.4 nM and the IC50 [1] is reported as 494 nM.

`Nc1cc(Oc2c(C3CCC3)ccc(-c3cnc(N)nc3)c2F)ncn1` [Example 164, 5-{3-[(6-Aminopyrimidin-4-yl)oxy]-4-cyclobutyl-2-fluorophenyl}pyrimidin-2-amine] gave a Ki (human FLAP) of 36.8 nM and an IC50 [1] of 118 nM.

In the case of `CC(C)c1ccnc(Oc2c(C3CCC3)ccc(-c3cnc(N)nc3)c2F)n1` [Example 165, 5-(4-Cyclobutyl-2-fluoro-3-{[4-(1-methylethyl)pyrimidin-2-yl]oxy}phenyl)pyrimidin-2-amine], the Ki (human FLAP) is reported as 5.6 nM and the IC50 [1] is reported as 304 nM.

With `Nc1ncc(-c2ccc(C3CCC3)c(Oc3ccnc(N)n3)c2F)cn1` [Example 166, 4-[3-(2-Aminopyrimidin-5-yl)-6-cyclobutyl-2-fluorophenoxy]pyrimidin-2-amine] the Ki (human FLAP) was 11.7 nM and the IC50 [1] was 129 nM.

Molecule `Cc1cc(C)nc(Oc2c(C3CCC3)ccc(-c3cnc(N)nc3)c2F)n1` [Example 167, 5-{4-Cyclobutyl-3-[(4,6-dimethylpyrimidin-2-yl)oxy]-2-fluorophenyl}pyrimidin-2-amine] has a Ki (human FLAP) of 14.7 nM and an IC50 [1] of 45.6 nM.

`CC(C)c1cc(Oc2c(C3CCC3)ccc(-c3cnc(N)nc3)c2F)nc(N)n1` [Example 168, 4-(3-(2-aminopyrimidin-5-yl)-6-cyclobutyl-2-fluorophenoxy)-6-isopropylpyrimidin-2-amine] gave a Ki (human FLAP) of 2.8 nM and an IC50 [1] of 36.1 nM.

Molecule `NC(=O)c1ccnc(Oc2c(C3CCC3)ccc(-c3cnc(N)nc3)c2F)n1` [Example 169, 2-[3-(2-Aminopyrimidin-5-yl)-6-cyclobutyl-2-fluorophenoxy]pyrimidine-4-carboxamide] has a Ki (human FLAP) of 205 nM and an IC50 [1] of 268 nM.

`COc1cc(Oc2c(C3CCC3)ccc(-c3cnc(N)nc3)c2F)ncn1` [Example 170, 5-(4-cyclobutyl-2-fluoro-3-((6-methoxypyrimidin-4-yl)oxy)phenyl)pyrimidin-2-amine] was tested, and the Ki (human FLAP) was 90.3 nM and the IC50 [1] was 1430 nM.

`Nc1ncc(-c2ccc(C3CCC3)c(Oc3cc(O)ncn3)c2F)cn1` [Example 171, 6-[3-(2-Aminopyrimidin-5-yl)-6-cyclobutyl-2-fluorophenoxy]pyrimidin-4-ol trifluoroacetate] gave a Ki (human FLAP) of 39.8 nM and an IC50 [1] of 252 nM.

For `COc1c(C2CCC2)ccc(-c2ncc(N)nc2C#N)c1F` [Example 172, 6-amino-3-(4-cyclobutyl-2-fluoro-3-methoxyphenyl)pyrazine-2-carbonitrile], the Ki (human FLAP) was 394 nM and the IC50 [1] was 1660 nM.

For `N#Cc1nc(N)cnc1-c1ccc(C2CCC2)c(OCc2cccc(C(=O)O)c2)c1F` [Example 174, 3-{[3-(5-Amino-3-cyanopyrazin-2-yl)-6-cyclobutyl-2-fluorophenoxy]methyl}benzoic acid], the Ki (human FLAP) was 5.4 nM and the IC50 [1] was 1210 nM.

In the case of `COc1c(C2CCC2)ccc(-c2cnc3[nH]ccc3n2)c1F` [Example 175, 2-(4-cyclobutyl-2-fluoro-3-methoxyphenyl)-5H-pyrrolo[2,3-b]pyrazine], the Ki (human FLAP) is reported as 100 nM and the IC50 [1] is reported as 1280 nM.

`Nc1ccc(-c2ccc(C3CCC3)c(OCc3ccc(C(=O)O)cc3)c2F)cn1` [Example 181, 4-((3-(6-Aminopyridin-3-yl)-6-cyclobutyl-2-fluorophenoxy)methyl)benzoic acid] gave a Ki (human FLAP) of 41 nM and an IC50 [1] of 10000 nM.

`COc1c(C2CCC2)ccc(-c2cnc3[nH]cnc3c2)c1F` [Example 183, 6-(4-Cyclobutyl-2-fluoro-3-methoxyphenyl)-3H-imidazo[4,5-b]pyridine] was tested, and the Ki (human FLAP) was 328 nM and the IC50 [1] was over 10000 nM.

`COc1c(C2CCC2)ccc(-c2cnc3c(c2)OCCN3)c1F` [Example 184, 7-(4-cyclobutyl-2-fluoro-3-methoxyphenyl)-3,4-dihydro-2H-pyrido[3,2-b][1,4]oxazine] showed a Ki (human FLAP) of 14 nM and an IC50 [1] of 831 nM.

`Oc1c(C2CCC2)ccc(-c2cnc3c(c2)OCCN3)c1F` [Example 185, 6-cyclobutyl-3-(3,4-dihydro-2H-pyrido[3,2-b][1,4]oxazin-7-yl)-2-fluorophenol] was tested, and the Ki (human FLAP) was 19.6 nM and the IC50 [1] was 1010 nM.

`Fc1c(-c2cnc3c(c2)OCCN3)ccc(C2CCC2)c1OCc1ccccc1` [Example 186, 7-[3-(Benzyloxy)-4-cyclobutyl-2-fluorophenyl]-3,4-dihydro-2H-pyrido[3,2-b][1,4]oxazine] gave a Ki (human FLAP) of 20.5 nM and an IC50 [1] of 531 nM.

`N#Cc1cccc(COc2c(C3CCC3)ccc(-c3cnc4c(c3)OCCN4)c2F)c1` [Example 187, 3-{[6-Cyclobutyl-3-(3,4-dihydro-2H-pyrido[3,2-b][1,4]oxazin-7-yl)-2-fluorophenoxy]-methyl}-benzonitrile] was tested, and the Ki (human FLAP) was 12 nM and the IC50 [1] was 355 nM.

`CS(=O)(=O)c1cccc(COc2c(C3CCC3)ccc(-c3cnc4c(c3)OCCN4)c2F)c1` [Example 188, 7-(4-Cyclobutyl-2-fluoro-3-{[3-(methylsulfonyl)-benzyl]oxy}phenyl)-3,4-dihydro-2H-pyrido[3,2-b][1,4]oxazine] was tested, and the Ki (human FLAP) was 8.6 nM and the IC50 [1] was 1100 nM.

In the case of `CS(=O)(=O)c1ccc(COc2c(C3CCC3)ccc(-c3cnc4c(c3)OCCN4)c2F)cc1` [Example 189, 7-(4-Cyclobutyl-2-fluoro-3-{[4-(methylsulfonyl)-benzyl]-oxy}-phenyl)-3,4-dihydro-2H-pyrido[3,2-b][1,4]oxazine], the Ki (human FLAP) is reported as 9.8 nM and the IC50 [1] is reported as 1140 nM.

`N#Cc1ccc(COc2c(C3CCC3)ccc(-c3cnc4c(c3)OCCN4)c2F)cc1` [Example 190, 4-{[6-Cyclobutyl-3-(3,4-dihydro-2H-pyrido[3,2-b][1,4]oxazin-7-yl)-2-fluorophenoxy]-methyl}-benzonitrile] gave a Ki (human FLAP) of 47.2 nM and an IC50 [1] of 1060 nM.

`Fc1c(-c2cnc3c(c2)OCCN3)ccc(C2CCC2)c1OCc1ccc(C(F)(F)F)cc1` [Example 191, 7-(4-Cyclobutyl-2-fluoro-3-{[4-(trifluoromethyl)benzyl]oxy}phenyl)-3,4-dihydro-2H-pyrido[3,2-b][1,4]oxazine] gave a Ki (human FLAP) of 250 nM and an IC50 [1] of 3430 nM.

`NC(=O)c1cccc(COc2c(C3CCC3)ccc(-c3cnc4c(c3)OCCN4)c2F)c1` [Example 192, 3-{[6-Cyclobutyl-3-(3,4-dihydro-2H-pyrido[3,2-b][1,4]oxazin-7-yl)-2-fluorophenoxy]-methyl}-benzamide] showed a Ki (human FLAP) of 5.3 nM and an IC50 [1] of 418 nM.

In the case of `NC(=O)c1ccc(COc2c(C3CCC3)ccc(-c3cnc4c(c3)OCCN4)c2F)cc1` [Example 193, 4-{[6-Cyclobutyl-3-(3,4-dihydro-2H-pyrido[3,2-b][1,4]oxazin-7-yl)-2-fluorophenoxy]-methyl}-benzamide], the Ki (human FLAP) is reported as 3.7 nM and the IC50 [1] is reported as 769 nM.

Molecule `Fc1c(-c2cnc3c(c2)OCCN3)ccc(C2CCC2)c1Oc1cccc(C(F)(F)F)n1` [Example 194, 7-(4-Cyclobutyl-2-fluoro-3-{[6-(trifluoromethyl)pyridin-2-yl]oxy}phenyl)-3,4-dihydro-2H-pyrido[3,2-b][1,4]oxazine] has a Ki (human FLAP) of 2.9 nM and an IC50 [1] of 168 nM.

With `O=C(O)Cc1ccc(COc2c(C3CCC3)ccc(-c3cnc4c(c3)OCCN4)c2F)cc1` [Example 195, (4-{[6-cyclobutyl-3-(3,4-dihydro-2H-pyrido[3,2-b][1,4]oxazin-7-yl)-2-fluorophenoxy]methyl}phenyl)acetic acid] the Ki (human FLAP) was 2.2 nM and the IC50 [1] was 446 nM.

`O=C(O)c1ccc(COc2c(C3CCC3)ccc(-c3cnc4c(c3)OCCN4)c2F)cc1` [Example 196, 4-{[6-Cyclobutyl-3-(3,4-dihydro-2H-pyrido[3,2-b][1,4]oxazin-7-yl)-2-fluorophenoxy]methyl}benzoic acid] was tested, and the Ki (human FLAP) was 4.1 nM and the IC50 [1] was 871 nM.
